Experimental data: patent US8680137B2, “Agents and methods for treating ischemic and other diseases” (Nono Inc., priority 2009, dated 2014)
pIC50: −log10 of the molar value. Counter-ions that a name gives are not always drawn. Like-named read-outs stand apart in the source and are kept apart here.

Tests used:
murine TRPM7 = murine TRPM7 (Mus musculus, UniProt Q923J1); assay: TRPM7-mediated cell death screen, Tet-induced Flag-murine TRPM7 HEK293 Trex cells in Mg2+-deficient HBSS, PI fluorescence
Sequence of murine TRPM7 (Q923J1 whole entry): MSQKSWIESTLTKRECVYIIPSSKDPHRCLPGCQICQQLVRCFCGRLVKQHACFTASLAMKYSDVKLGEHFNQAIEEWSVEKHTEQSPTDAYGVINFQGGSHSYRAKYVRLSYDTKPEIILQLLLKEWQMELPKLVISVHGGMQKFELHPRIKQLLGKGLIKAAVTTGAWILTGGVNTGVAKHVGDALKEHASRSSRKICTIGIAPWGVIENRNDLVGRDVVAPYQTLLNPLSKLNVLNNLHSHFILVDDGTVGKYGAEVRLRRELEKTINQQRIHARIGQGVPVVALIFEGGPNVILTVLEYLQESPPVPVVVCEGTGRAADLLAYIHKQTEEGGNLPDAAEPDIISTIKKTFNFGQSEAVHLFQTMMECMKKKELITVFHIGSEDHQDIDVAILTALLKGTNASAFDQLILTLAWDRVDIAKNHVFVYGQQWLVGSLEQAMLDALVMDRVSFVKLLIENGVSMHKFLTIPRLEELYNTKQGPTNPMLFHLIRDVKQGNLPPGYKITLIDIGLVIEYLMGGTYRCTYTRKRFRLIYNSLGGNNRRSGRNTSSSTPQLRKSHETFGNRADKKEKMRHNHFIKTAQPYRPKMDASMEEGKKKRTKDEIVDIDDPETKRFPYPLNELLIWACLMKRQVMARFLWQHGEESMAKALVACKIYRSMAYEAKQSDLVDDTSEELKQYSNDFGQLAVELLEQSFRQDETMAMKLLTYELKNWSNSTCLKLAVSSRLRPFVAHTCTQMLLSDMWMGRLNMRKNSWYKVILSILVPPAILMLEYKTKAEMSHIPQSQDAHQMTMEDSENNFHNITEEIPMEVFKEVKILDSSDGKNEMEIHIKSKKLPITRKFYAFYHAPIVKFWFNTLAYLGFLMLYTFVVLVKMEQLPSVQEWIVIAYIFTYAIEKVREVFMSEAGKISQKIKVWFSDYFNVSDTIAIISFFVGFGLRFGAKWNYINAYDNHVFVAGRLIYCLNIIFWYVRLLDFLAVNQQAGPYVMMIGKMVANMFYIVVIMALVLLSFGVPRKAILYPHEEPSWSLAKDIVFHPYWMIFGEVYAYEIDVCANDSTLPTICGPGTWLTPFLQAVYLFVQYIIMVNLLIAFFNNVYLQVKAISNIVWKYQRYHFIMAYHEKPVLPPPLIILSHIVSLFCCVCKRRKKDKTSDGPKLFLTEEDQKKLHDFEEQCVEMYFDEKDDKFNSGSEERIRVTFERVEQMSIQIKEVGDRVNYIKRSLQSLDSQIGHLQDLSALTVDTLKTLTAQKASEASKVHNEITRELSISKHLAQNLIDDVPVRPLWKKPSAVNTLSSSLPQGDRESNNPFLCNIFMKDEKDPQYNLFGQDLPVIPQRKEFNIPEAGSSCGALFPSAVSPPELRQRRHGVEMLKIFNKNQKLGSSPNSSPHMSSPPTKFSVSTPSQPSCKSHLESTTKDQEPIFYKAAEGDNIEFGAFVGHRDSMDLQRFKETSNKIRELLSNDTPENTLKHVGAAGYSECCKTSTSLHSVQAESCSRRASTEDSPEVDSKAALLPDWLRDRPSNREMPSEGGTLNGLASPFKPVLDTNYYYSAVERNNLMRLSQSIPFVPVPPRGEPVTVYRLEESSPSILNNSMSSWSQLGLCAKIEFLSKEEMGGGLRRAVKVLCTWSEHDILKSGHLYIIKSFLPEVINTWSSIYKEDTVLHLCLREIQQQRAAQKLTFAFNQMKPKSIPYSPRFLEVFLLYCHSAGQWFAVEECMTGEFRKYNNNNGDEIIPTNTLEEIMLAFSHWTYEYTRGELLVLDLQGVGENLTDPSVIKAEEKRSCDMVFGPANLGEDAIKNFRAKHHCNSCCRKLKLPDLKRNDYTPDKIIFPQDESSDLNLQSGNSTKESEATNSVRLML
Protocol: In the present example, human embryonic kidney (HEK293 Trex) cells were stably transfected with a tetracycline inducible Flag-tagged TRPM7 construct.
This cell death can be measured, and the impact of a candidate TRPM7 modulator on this cell death can be measured. […] Cell death can also be measured by fluorescent measurements of propidium iodide and dihydrorhodamine.
Tet-inducible Flag-murine TRPM7/pcDNA4-TO HEK293 Trex cells are cultured in: MEM (Invitrogen) supplemented with 10% fetal bovine serum, 20 mM GlutaMAX-1, 100 units/ml penicillin G sodium, 100 units/ml streptomycin sulfate, 0.25 ug/ml amphotericin B, 5 ug/ml blasticidin, 0.4 mg/ml zeocin. (All reagent were obtained from Invitrogen)
Stably transfected Flag-murine TRPM7/pcDNA4-TO HEK293 Trex cells are thawed from frozen stock kept in liquid nitrogen, and cultured in culture medium for 5 days in 100 mm dishes (Costa). […] Cells used in the present experiments are kept to three passages or less. The cells are maintained at 37° C. with 5% CO2 in a humidified incubator. All culture plates and multi-well plates (Costa) are coated with poly-D-lysine. The coating with poly-D-lysine is performed using 0.1 mg/ml poly-D-lysine (P1045 Sigma) for 12 h at 37C, followed by four washes with sterilized D-PBS (Invitrogen) without MgCl2 and CaCl2.).
When 384 well plates are used, Cells are seeded at 1.3−1.5×10^4 cells/well. When 96 well plates are used, cells are seeded at 4−5×10^4 Cells/well. After 24 h TRPM7 expression is induced by adding tetracycline (Tet; 1 ug/ml) (Invitrogen) for 24 h, followed by wash with Mg deficient HBSS.
The test compounds were plated in 96 or 384 well formats, and initially used at a concentration of: 4 μM for compounds of the LOPAC library and 5 μM for each of the Prestwick and Maybridge libraries.
Cell death in the presence or absence of a test compound and/or under conditions of TRPM7 activation was determined by fluorescence measurements of PI (5-50 μg/ml).
In brief, B scores are a relative potency score based on the raw sample PI fluorescence value. They are the ratio of an adjusted raw PI fluorescence value in the numerator to a measure of variability in the denominator.
In another approach, used manually to validate the results of the HTS method, a multiwell plate fluorescence scanner (Fluorskan Ascent; Thermo Scientific) was used. The fraction of dead cells in each culture was calculated as: fraction DEAD=(Ft−Fo)/Fmax Where Ft=PI fluorescence of the sample at time t, Fo=initial PI fluorescence and Fmax=background subtracted PI fluorescence the same cultures after exposure to 100 μM triton-X. An alternative to this formula is a Control-based formula wherein the fraction dead=[Ft−F(−)t]/[F(+)t−F(−)t] where Ft=PI fluorescence of the sample at time t, F(−)t is the PI fluorescence of the negative control sample at time t, F(+)t is the PI fluorescence of the positive control sample at time t.
Screening was carried out in Tet-induced Flag-murine TRPM7/pcDNA4-TO HEK293 Trex cells.

TRPM7 = TRPM7 (Homo sapiens, UniProt Q96QT4); conditions: Nadler et al., Jiang et al.; read-out: IC50 for inhibition of TRPM7; cited from earlier work
Sequence of TRPM7 (Q96QT4 whole entry): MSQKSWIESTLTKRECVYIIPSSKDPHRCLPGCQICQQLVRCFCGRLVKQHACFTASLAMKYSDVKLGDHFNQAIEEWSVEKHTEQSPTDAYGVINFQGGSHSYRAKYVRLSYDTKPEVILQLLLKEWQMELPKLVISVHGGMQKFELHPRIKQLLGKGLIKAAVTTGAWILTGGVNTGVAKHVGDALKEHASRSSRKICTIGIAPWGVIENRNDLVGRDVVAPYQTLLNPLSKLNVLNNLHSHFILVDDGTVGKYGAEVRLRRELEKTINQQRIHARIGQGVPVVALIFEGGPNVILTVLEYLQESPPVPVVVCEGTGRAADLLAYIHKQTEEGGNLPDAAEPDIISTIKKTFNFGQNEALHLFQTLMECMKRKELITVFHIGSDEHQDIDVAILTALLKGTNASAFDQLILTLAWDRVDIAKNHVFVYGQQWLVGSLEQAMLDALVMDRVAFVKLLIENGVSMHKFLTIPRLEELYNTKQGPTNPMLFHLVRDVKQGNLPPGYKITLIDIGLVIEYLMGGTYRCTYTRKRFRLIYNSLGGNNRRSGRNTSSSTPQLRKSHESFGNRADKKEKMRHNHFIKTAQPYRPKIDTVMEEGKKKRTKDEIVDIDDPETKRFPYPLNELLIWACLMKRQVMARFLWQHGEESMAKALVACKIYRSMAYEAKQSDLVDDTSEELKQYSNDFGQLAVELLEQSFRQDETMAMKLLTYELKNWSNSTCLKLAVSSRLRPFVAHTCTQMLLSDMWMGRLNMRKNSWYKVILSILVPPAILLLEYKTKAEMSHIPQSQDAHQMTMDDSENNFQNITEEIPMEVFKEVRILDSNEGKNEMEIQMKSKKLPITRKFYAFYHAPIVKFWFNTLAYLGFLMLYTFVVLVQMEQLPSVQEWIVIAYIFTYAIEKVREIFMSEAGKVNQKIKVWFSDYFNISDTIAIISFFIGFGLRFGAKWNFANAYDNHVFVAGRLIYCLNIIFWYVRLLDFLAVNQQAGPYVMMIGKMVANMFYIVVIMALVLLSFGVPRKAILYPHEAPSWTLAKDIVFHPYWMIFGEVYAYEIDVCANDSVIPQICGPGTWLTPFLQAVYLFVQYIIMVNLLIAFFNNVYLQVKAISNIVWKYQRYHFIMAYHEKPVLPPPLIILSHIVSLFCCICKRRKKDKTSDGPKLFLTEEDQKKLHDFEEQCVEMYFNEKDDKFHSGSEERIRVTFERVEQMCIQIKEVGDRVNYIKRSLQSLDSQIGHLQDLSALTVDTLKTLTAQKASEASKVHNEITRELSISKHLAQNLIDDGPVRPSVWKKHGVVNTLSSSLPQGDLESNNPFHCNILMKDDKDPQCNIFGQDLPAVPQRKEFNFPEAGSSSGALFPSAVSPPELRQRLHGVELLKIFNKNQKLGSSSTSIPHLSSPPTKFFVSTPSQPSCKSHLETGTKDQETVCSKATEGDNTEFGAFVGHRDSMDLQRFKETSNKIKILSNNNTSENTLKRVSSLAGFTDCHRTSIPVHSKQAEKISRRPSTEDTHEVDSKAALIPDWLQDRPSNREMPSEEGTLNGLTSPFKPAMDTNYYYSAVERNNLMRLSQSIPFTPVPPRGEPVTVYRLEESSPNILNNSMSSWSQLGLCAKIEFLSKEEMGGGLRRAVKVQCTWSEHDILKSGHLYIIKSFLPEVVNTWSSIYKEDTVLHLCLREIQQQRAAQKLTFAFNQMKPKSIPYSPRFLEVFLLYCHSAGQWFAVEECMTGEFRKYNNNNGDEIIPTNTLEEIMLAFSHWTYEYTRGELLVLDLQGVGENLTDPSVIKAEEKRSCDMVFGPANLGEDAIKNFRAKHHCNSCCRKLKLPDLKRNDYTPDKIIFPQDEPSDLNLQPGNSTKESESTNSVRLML

H9c2 cells = assay: OGD-induced cell death in H9c2 cardiomyocytes, PI uptake; assay type: cell-based, rat; conditions: 6 hr anoxia + 2 hr recovery, gadolinium in buffer
Protocol: The rat cardiomyoblast cell line H9c2 was obtained from the American Type Culture Collection (CRL-1446) and cultured in Dulbecco's Modified Eagle Medium supplemented with 10% (v/v) heat-inactivated fetal bovine serum and 1% antibiotic-antimycotic. Cells were grown in an atmosphere of […]/5% CO2 in a humidified incubator.
H9c2 cells were made anoxic by replacing the medium with de-oxygenated Ischemic buffer (in mM: 1.13 CaCl2, 5 KCl, 0.3 KH2PO4, 0.5 MgCl2, 0.4 MgSO4, 128 NaCl, 10 HEPES) and by transferring them to an anaerobic chamber (5% CO2, 10% H2, 85% N2) for 6 hrs or 16 hrs at 37° C. OGD was terminated by washing the cells with oxygenated glucose-containing Control buffer (in mM: 1.13 CaCl2, 5 KCl, 0.3 KH2PO4, 0.5 MgCl2, 0.4 MgSO4, 128 NaCl, 10 HEPES 10 Glucose). Cultures were maintained for another 2 hrs at 37° C. in a humidified 5% CO2 atmosphere. Normoxic cells were maintained in Control buffer for the duration of the experiment.
Cell death was determined by fluorescence measurements of PI (5 μg/ml) using a multiwell plate fluorescence scanner. The fraction of dead cells in each culture was calculated as: fraction dead=(Ft−F0)/Fmax where Ft=PI fluorescence at 2 hrs post-OGD, F0=initial PI fluorescence immediately after the OGD treatment, and Fmax=PI fluorescence of the same cultures following 20 mins incubation in 1% TritonX-100.
H9c2 cells were cultured and subjected to OGD as described supra. FIG. 71 panels A and B show the results of exposure to M21 or M5 for 24 hours following 6 hours of OGD. FIG. 71 panels C and D show the results of H9c2cells were treated with either 1 mM Mg^2+, 5 μM M6, M11 (acute treatment) during the anoxic and recovery periods, or 1 μM nifedipine. Results are presented as mean±SEM (n=4).

[1] = LOPAC (4 μM) and Prestwick (5 μM) hits
[2] = Prestwick library, 39 nM to 20 μM
[3] = Prestwick library, initial concentration 5 μM, HTS PI fluorescence
[4] = Prestwick library, manual replication
[5] = LOPAC library, initial concentration 4 μM, HTS PI fluorescence
[6] = LOPAC library, manual replication

Compound | found to inhibit TRPM7-mediated cell injury (murine TRPM7; [1]) | Dose-Response (murine TRPM7; [2]) | B Score (murine TRPM7; [3]) | Verification Ratio (murine TRPM7; [4]) | Dose-Response (murine TRPM7; LOPAC library, 39 nM to 20 μM) | B Score (murine TRPM7; [5]) | Verification Ratio (murine TRPM7; [6]) | other results
COc1ccc(C[C@H]2NC[C@H](O)[C@H]2OC(C)=O)cc1 [Anisomycin] | inhibit TRPM7-mediated cell injury | Yes | −6.683 | 0.4265 | – | – | – | –
COc1cccc(OC)c1OCCNCC1CSc2ccccc2O1 (centres unmarked) [Benoxathian hydrochloride] | inhibit TRPM7-mediated cell injury | – | – | – | Yes | −10.32 | 0.359 | –
CCn1cnc2c(Nc3cccc(Cl)c3)nc(N[C@@H]3CCCC[C@@H]3N)nc21.Cl [CGP-74514A hydrochloride] | inhibit TRPM7-mediated cell injury | – | – | – | Yes | −7.96 | 0.6543 | –
C[C@@]12C(=O)OC(=O)[C@]1(C)[C@H]1CC[C@@H]2O1 [Cantharidin] | inhibit TRPM7-mediated cell injury | – | −9.671 | 0.3746 | – | −10.178 | 0.7724 | –
CC[C@H]1CN2CCc3cc(OC)c(OC)cc3[C@@H]2C[C@@H]1C[C@H]1NCCc2cc(O)c(OC)cc21.Cl.Cl.O.O.O.O.O.O.O [Cephaeline dihydrochloride heptahydrate] | inhibit TRPM7-mediated cell injury | – | −7.927 | 0.2271 | – | – | – | –
O=C(O)c1cc(O)cc(C(=O)O)n1 [Chelidamic acid] | inhibit TRPM7-mediated cell injury | – | – | – | Yes | −12.502 | 1.287 | –
Cc1cc(C2CCCCC2)n(O)c(=O)c1.NCCO [Ciclopirox ethanolamine] | inhibit TRPM7-mediated cell injury | Yes | −5.075 | 0.4227 | – | – | – | –
COc1cc2c(c(OC)c1OC)-c1ccc(OC)c(=O)cc1[C@@H](NC(C)=O)CC2 [Colchicine] | – | – | – | – | – | – | – | B Score (murine TRPM7): −7.343; Verification Ratio (murine TRPM7): 0.6723; found to inhibit TRPM7-mediated cell injury (murine TRPM7): inhibit TRPM7-mediated cell injury
COc1cccc2c1C(=O)c1c(O)c3c(c(O)c1C2=O)C[C@@](O)(C(C)=O)C[C@@H]3O[C@H]1C[C@H](N)[C@H](O)[C@H](C)O1 [Daunorubicin hydrochloride] | inhibit TRPM7-mediated cell injury | Yes | −5.68 | 0.4598 | – | – | – | –
C[C@H]1O[C@@H](O[C@H]2[C@@H](O)C[C@H](O[C@H]3[C@@H](O)C[C@H](O[C@H]4CC[C@@]5(C)[C@H](CC[C@@H]6[C@@H]5C[C@@H](O)[C@]5(C)[C@@H](C7=CC(=O)OC7)CC[C@]65O)C4)O[C@@H]3C)O[C@@H]2C)C[C@H](O)[C@@H]1O [Digoxin] | – | – | – | – | – | – | – | B Score (murine TRPM7): −5.938; Dose-Response (murine TRPM7): Yes; Verification Ratio (murine TRPM7): 0.7248; found to inhibit TRPM7-mediated cell injury (murine TRPM7): inhibit TRPM7-mediated cell injury
COc1cccc2c1C(=O)c1c(O)c3c(c(O)c1C2=O)C[C@@](O)(C(=O)CO)C[C@@H]3O[C@H]1C[C@H](N)[C@H](O)[C@H](C)O1 [Doxorubicin hydrochloride] | inhibit TRPM7-mediated cell injury | Yes | −9.315 | 0.4588 | – | – | – | –
CCOc1ccc(Cc2nccc3cc(OCC)c(OCC)cc23)cc1OCC [Ethaverine hydrochloride] | inhibit TRPM7-mediated cell injury | Yes | −9.238 | 0.08142 | – | – | – | –
Ic1ccccc1CNC1C2CCN(CC2)C1C(c1ccccc1)c1ccccc1.O=C(O)C(=O)O [L-703,606 oxalate] | inhibit TRPM7-mediated cell injury | – | – | – | Yes | −8.636 | 0.373 | –
CC[C@@H](C(=O)[C@@H](C)[C@@H](O)[C@H](C)CCc1ccc(C)c(O)c1C(=O)O)[C@H]1O[C@](CC)([C@H]2CC[C@](O)(CC)[C@H](C)O2)C[C@@H]1C [Lasalocid sodium salt] | inhibit TRPM7-mediated cell injury | – | −5.54 | 0.6891 | – | – | – | –
[Mg+2] [Mg^2+] | – | – | – | – | – | – | – | pIC50 (TRPM7): ~3.22
O=C1c2c(O)ccc(O)c2C(=O)c2c(NCCNCCO)ccc(NCCNCCO)c21 [Mitoxantrone] | inhibit TRPM7-mediated cell injury | – | – | – | Yes | −7.587 | 0.25 | –
COc1ccccc1N1CCN(CC(O)COc2cccc3ccccc23)CC1 (centres unmarked) [Naftopidil dihydrochloride] | inhibit TRPM7-mediated cell injury | – | −8.736 | 0.1346 | Yes | −7.535 | 0.2231 | –
COC(=O)C1=C(C)NC(C)=C(C(=O)OCCN(C)Cc2ccccc2)C1c1cccc([N+](=O)[O-])c1 (centres unmarked) [Nicardipine hydrochloride] | inhibit TRPM7-mediated cell injury | Yes | −7.543 | 0.6651 | – | – | – | –
COc1cc(/C=C/C(=O)N2CCC=CC2=O)cc(OC)c1OC [Piperlongumine] | inhibit TRPM7-mediated cell injury | Yes | −9.599 | 0.7354 | – | – | – | –
COc1ccc(C[C@H](N)C(=O)N[C@H]2[C@@H](O)[C@H](n3cnc4c(N(C)C)ncnc43)O[C@@H]2CO)cc1 [Puromycin dihydrochloride] | inhibit TRPM7-mediated cell injury | Yes | −5.573 | 0.5905 | – | – | – | –
CCN(CC)CCCC(C)Nc1c2ccc(Cl)cc2nc2ccc(OC)cc12 (centres unmarked) [Quinacrine dihydrochloride] | inhibit TRPM7-mediated cell injury | – | – | – | Yes | −5.516 | 0.8254 | –
C[n+]1cc2c3c(ccc2c2ccc4cc5c(cc4c21)OCO5)OCO3 [Sanguinarine chloride] | inhibit TRPM7-mediated cell injury | – | – | – | – | −6.158 | 0.8029 | –
COc1cc2c(cc1OC)-c1c/c(=N\c3c(C)cc(C)cc3C)n(C)c(=O)n1CC2 [Trequinsin hydrochloride] | inhibit TRPM7-mediated cell injury | – | – | – | Yes | −8.81 | 0.2534 | –
[Gd] [gadolinium, reference compound] | – | – | – | – | – | – | – | OGD-mediated cell death (H9c2 cells): reduced
